In patent US4549023A, “3-Aminoindazole derivatives” (priority 1980, dated 1985):
Where two headings read alike, the source gives them in different places.

Experiments:
[1] = tested on: carrageenin edema in rat's paw; assay: Carrageenin Edema Test in Rat's Paw (anti-inflammatory activity); type: in vivo, Female Wistar rats; conditions: for inhibition in vivo at 100 mg/kg: Rattus norvegicus, hydrochloric acid salts; for Inhibition values compared with comparative compounds: Table 1, 100 mg/kg
Method: A standard method of Carrageenin Edema Test in Rat's Paw described in C. A. Winter et al., Proc. Soc. Exp. Biol. Med., 111, 544 (1962) was employed.
[…] One hour later, the pad of a hind paw of the rat was injected with 0.1 ml of 1% aqueous carrageenin solution. The volume of the paw was measured both before the injection of carrageenin and three hours after the injection.
The edema inhibition percentage of the test compound was calculated from the ratio of the increase in the volume of the affected paw of the test animals to the increase in the volume of the affected paw of the controls.
The anti-inflammatory activity of the 3-aminoindazole derivative hydrochloric acid salts of this invention was measured.
The anti-inflammatory activity of the 3-aminoindazole derivative hydrochloric acid salts obtained by Examples 1-49 of this invention was measured by the standard method of carrageenin edema test. In these tests, the amount of the administration of the salts was 100 mg/kg. The results are shown in Table 17 (Inhibition (%) was measured three hours after the injection).

[2] = tested on: carrageenin-inflamed hind paw of the rat (pressure pain); assay: Randall-Selitto Test (analgesic activity); type: in vivo, Female wister rats; conditions: for Analgesic Coefficient, Table 18: 100 mg/kg, hydrochloric acid salts; for Analgesic Coefficient, Table 18 / Analgesic coefficient: water 0.8; for Analgesic coefficient: Randall-Selitto, oral, 50 mg/kg per method; for Analgesic activity by the Randall-Selitto test: rat, in vivo
Method: The Randall-Selitto analgesic activity test was carried out according to the general method described in J. O. Randall & J. J. Selitto, Arch. Int. Pharmacodyn, 111, 409 (1957). Female wister rats weighing 120-150 g were orally administered 50 mg/kg of the test compound as an aqueous solution. Thirty minutes later, the pad of a hind paw of the rat was injected with 0.1 ml of 1% aqueous carrageenin solution. Pressure was applied to the paw where edema was formed by Balance-type Pressure Device (Ugo Basile Company; Italy) 1, 2, 3 and 4 hours after the injection. The weight when the test animals began to struggle with pain was measured. The analgesic activity is represented by an analgesic coefficient which is obtained by dividing the average weight measured 1.5, 2.5, 3.5 and 4.5 hours after the administration by the applied weight prior to the administration.
The analgesic activity of the 3-aminoindazole derivative hydrochloric acid salts obtained by Examples 2, 6, 10, 18, 22 and 28 of this invention was measured by the standard method of Randall-Selitto test. In these tests, the amount of the administration of the salts was 100 mg/kg.

[3] = Acute toxicity (LD50), intravenous injection; conditions: mouse, in vivo, male ddY-strain mice, read-out: LD50, Table 19
Method: Acute toxicity was measured by an ordinary method described in Finney DJ Probit Analysis Cambridge University Press 48, (1952). Ddy mice weighing about 18 g on average, each group consisting of 10 animals, were […] injected with the physiological salt solution containing the test compound. The amount of the test compound administered was varied in 5-8 groups. Three days after the administration, dead animals were counted in each group. The amount of the test compound killing half the number of the animals (LD50) was calculated from the results.
The acute toxicity of the 3-aminoindazole derivatives and their hydrochloric acid salts obtained by Examples 1-49 of this invention was measured by giving male ddY-strain mice an intravenous injection.

[4] = tested on: acetic acid-induced writhing in mice; assay: Acetic Acid-Writhing Test (analgesic activity); type: in vivo, Male ddy-strain mice; conditions: 100 mg/kg, oral, hydrochloric acid salts
Method: Acetic acid-writhing test was carried out according to Koster et al., Fed. Proc., 18, 412 (1959). […] Thirty minutes later, the mice were intraperitoneally injected with 0.1 ml/10 g of 0.7% acetic acid physiological salt solution as a stimulant. Ten minutes after the stimulant injection, writhing frequency as pain response was observed and recorded over 10 minutes.
The inhibition percentage of the test compound was represented as the ratio of the inhibition of the writhing frequency.
Analgesic activity of 3-aminoindazole derivative hydrochloric acid salts was measured by acetic acid-writhing test.

[5] = po, 3 h, 100 mg/kg, measured three hours after the injection, read-out: Inhibition (carrageenin edema), Table 17
[6] = 100 mg/kg, oral, 3 h after carrageenin, read-out: Inhibition (carrageenin edema), Table 1

SMILES | inhibition in vivo at 100 mg/kg [1, 5] | inhibition in vivo at 100 mg/kg [1, 6] | Inhibition values compared with comparative compounds [1] | Analgesic Coefficient, Table 18 [2] | LD50 at 72 h [3] | Inhibition (acetic acid-writhing), Table 3 [4] | Inhibition (carrageenin edema), Table 2 ([1]; 25 mg/kg, oral) | Inhibition (carrageenin edema), Table 2 ([1]; 50 mg/kg, oral) | Inhibition (carrageenin edema), Table 2 ([1]; 100 mg/kg, oral) | Analgesic coefficient [2] | Analgesic activity by the Randall-Selitto test [2]
c1ccc2c(NCCCN3CCCCC3)n[nH]c2c1 [Compound (2), 3-(3-piperidinopropylamino)indazole] | 55% | 55% | higher than that of the compound C-1 | 0.98 | 101 mg/kg | 53% | – | – | – | – | –
CC1CCCCN1CCCNc1n[nH]c2ccccc12 (centres unmarked) [Compound (6), 3-{3-(2-methylpiperidino)propylamino}indazole] | 67% | 67% | higher than that of the compound C-1 | 1.11 | 91 mg/kg | 49% | 40% | 53% | 67% | 1.11 | potent analgesic activity
CC1CCCCN1CCCn1nc(N)c2ccccc21 (centres unmarked) [Compound (22), 1-{3-(2-methylpiperidino)propyl}-3-aminoindazole] | 51% | 51% | higher than those of the compounds C-2 and C-3 | 1.05 | 102 mg/kg | 31% | 29% | 33% | 51% | 1.05 | potent analgesic activity
CN(C)CCn1nc(N)c2ccccc21 [Compound (28), 1-(2-dimethylaminoethyl)-3-aminoindazole] | 44% | 44% | higher than those of the compounds C-2 and C-3 | 0.96 | 343 mg/kg | – | – | – | – | – | –
CC(C)CC(CCNc1nn(CCC(C)N2CCCCC2)c2ccccc12)N1CCCCC1 (centres unmarked) [Compound (44), 1-(3-piperidinobutyl)-3-(5-methyl-3-piperidinohexylamino)indazole] | 21% | – | – | – | 123 mg/kg | – | – | – | – | – | –
CC(CCNc1nn(CCC(C)N2CCCCC2)c2ccccc12)N(C)C (centres unmarked) [Compound (45)] | 21% | – | – | – | 124 mg/kg | – | – | – | – | – | –
CCN(CC)CCCNc1nn(CCC(C)N(C)C)c2ccccc12 (centres unmarked) [Compound (46), 1-(3-dimethylaminobutyl)-3-(3-diethylaminopropylamino)indazole] | 29% | – | – | – | 272 mg/kg | – | – | – | – | – | –
CC(CCn1nc(NCCCN2CCCCC2)c2ccccc21)N(C)C (centres unmarked) [Compound (47), 1-(3-dimethylaminobutyl)-3-(3-piperidinopropylamino)indazole] | 28% | – | – | – | 212 mg/kg | – | – | – | – | – | –
CC(CCn1nc(NCCC(C)N2CCCCC2)c2ccccc21)N(C)C (centres unmarked) [Compound (48), 1-(3-dimethylaminobutyl)-3-(3-piperidinobutylamino)indazole] | 27% | – | – | – | 213 mg/kg | – | – | – | – | – | –
CCN(CC)C(CCNc1nn(CCC(C)N(C)C)c2ccccc12)CC(C)C (centres unmarked) [Compound (49), 1-(3-dimethylaminobutyl)-3-(3-diethylamino-5-methylhexylamino)indazole] | 21% | – | – | – | 247 mg/kg | – | – | – | – | – | –
CN(C)CCCNc1nn(-c2ccccc2)c2ccccc12 [Compound C-6, 1-phenyl-3-(3-dimethylaminopropylamino)indazole, reference compound] | – | – | – | – | – | 0% | – | – | – | – | –
Nc1nn(-c2ccccc2)c2ccccc12 [Compound C-7, 1-phenyl-3-aminoindazole, reference compound] | – | – | – | – | – | 17% | – | – | – | – | –
